# Measurements from patent US5770599A, “Quinazoline derivatives” (Zeneca Limited, priority 1995, dated 1998).
# Where two headings read alike, the source gives them in different places.
# Experiments:
# [1] = tested on: EGF receptor tyrosine kinase; conditions: Fry et al., Science, 1994, 265, 1093; cited from earlier work
# [2] = tested on: human vulval epidermoid carcinoma cell line A-431; experiment: Test (c): in vivo inhibition of growth of A-431 xenografts in athymic nude mice; parameters: species or system human (xenograft in athymic nude mice); conditions: Mus musculus, A-431, 312 h; usually oral, once daily, 13 days; approximately
# Protocol: (c) An in-vivo assay in a group of athymic nude mice (strain ONU:Alpk) which determines the ability of a test compound (usually administered orally as a ball-milled suspension in 0.5% polysorbate) to inhibit the growth of xenografts of the human vulval epidermoid carcinoma cell line A-431.
# A-431 cells were maintained in culture in DMEM supplemented with 5% FCS and 2 mM glutamine. Freshly cultured cells were harvested by trypsinization and injected subcutaneously (10 million cells/0.1 ml/mouse) into both flanks of a number of donor nude mice. When sufficient tumour material was available (after approximately 9 to 14 days), fragments of tumour tissue were transplanted in the flanks of recipient nude mice (test day 0). Generally, on the seventh day after transplantation (test day 7) groups of 7 to 10 mice with similar-sized tumours were selected and dosing of the test compound was commenced. Once daily dosing of test compound was continued for a total of 13 days (test days 7 to 19 inclusive). In some studies the dosing of the test compound was continued beyond test day 19, for example to test day 26. In each case, on the following test day the animals were killed and the final tumour volume was calculated from measurements of the length and width of the tumours. Results were calculated as a percentage inhibition of tumour volume relative to untreated controls.
# [3] = tested on: human naso-pharyngeal cancer cell line KB; experiment: cells; format: cell-based; conditions: 72 h, values stated as approximate, EGF 10 ng/ml, 3 days, read-out: Test (b) IC50
# Protocol: (b) An in vitro assay which determines the ability of a test compound to inhibit the EGF-stimulated growth of the human naso-pharyngeal cancer cell line KB.
# Cell growth was determined after incubation for 3 days by the extent of metabolism of MTT tetrazolium dye to furnish a bluish colour. Cell growth was then determined in the presence of EGF (10 ng/ml) or in the presence of EGF (10 ng/ml) and a test compound at a range of concentrations. An IC50 value could then be calculated.
# [4] = target: T1, EGF receptor tyrosine kinase (Homo sapiens, UniProt P00533); experiment: Test (a): in vitro assay of inhibition of the enzyme EGF receptor tyrosine kinase (32P peptide phosphorylation); format: biochemical
# T1 construct: Receptor tyrosine kinase was obtained in partially purified form from A-431 cells; endogenous in cells; host or cells: A-431 cells (human vulval carcinoma); solubilised membrane fraction
# Protocol: (a) An in vitro assay which-determines the ability of a test compound to inhibit the enzyme EGF receptor tyrosine kinase.
# A-431 cells were grown to confluence using Dulbecco's modified Eagle's medium (DMEM) containing 5% fetal calf serum (FCS). […] The homogenate was centrifuged at 400 g for 10 minutes at 0°-4° C. The supernatant was centrifuged at 25,000 g for 30 minutes at 0°-4° C. The pelleted material was suspended in 30 mM Hepes buffer at pH 7.4 containing 5% glycerol, 4 mM benzamidine and 1% Triton X-100, stirred for 1 hour at 0°-4° C., and recentrifuged at 100,000 g for 1 hour at 0°-4° C. The supernatant, containing solubilised receptor tyrosine kinase, was stored in liquid nitrogen.
# There was thus obtained the test enzyme solution.
# Equal volumes of this solution and a solution of epidermal growth factor (EGF; 20 μg/ml) were mixed.
# [γ-^32 P]ATP (3000 Ci/mM, 250 μCi) was diluted to a volume of 2 ml by the addition of a solution of ATP (100 μM) in distilled water. An equal volume of a 4 mg/ml solution of the peptide […]in a mixture of 40 mM Hepes buffer at pH 7.4, 0.1% Triton X-100 and 10% glycerol was added.
# The test compound/EGF mixture solution (5 μl) was added to the test enzyme solution (10 μl) and the mixture was incubated at 0°-4° C. for 30 minutes. The ATP/peptide mixture (10 μl) was added and the mixture was incubated at 25° C. for 10 minutes. The phosphorylation reaction was terminated by the addition of 5% trichloroacetic acid (40 μl ) and bovine serum albumin (BSA; 1 mg/ml, 5 μl). The mixture was allowed to stand at 4° C. for 30 minutes and then centrifuged. An aliquot (40 μl) of the supernatant was placed onto a strip of Whatman p 81 phosphocellulose paper. The strip was washed in 75 mM phosphoric acid (4×10 ml) and blotted dry. Radioactivity present in the filter paper was measured using a liquid scintillation counter (Sequence A). The reaction sequence was repeated in the absence of the EGF (Sequence B) and again in the absence of the test compound (Sequence C).
# [5] = tested on: another carcinoma which does not express EGF receptor tyrosine kinase; conditions: Toi et al., 1990; cited from earlier work
# [6] = values stated as approximate, EGF receptor tyrosine kinase from A-431 cells
# T1 sequence (P00533 25-1210): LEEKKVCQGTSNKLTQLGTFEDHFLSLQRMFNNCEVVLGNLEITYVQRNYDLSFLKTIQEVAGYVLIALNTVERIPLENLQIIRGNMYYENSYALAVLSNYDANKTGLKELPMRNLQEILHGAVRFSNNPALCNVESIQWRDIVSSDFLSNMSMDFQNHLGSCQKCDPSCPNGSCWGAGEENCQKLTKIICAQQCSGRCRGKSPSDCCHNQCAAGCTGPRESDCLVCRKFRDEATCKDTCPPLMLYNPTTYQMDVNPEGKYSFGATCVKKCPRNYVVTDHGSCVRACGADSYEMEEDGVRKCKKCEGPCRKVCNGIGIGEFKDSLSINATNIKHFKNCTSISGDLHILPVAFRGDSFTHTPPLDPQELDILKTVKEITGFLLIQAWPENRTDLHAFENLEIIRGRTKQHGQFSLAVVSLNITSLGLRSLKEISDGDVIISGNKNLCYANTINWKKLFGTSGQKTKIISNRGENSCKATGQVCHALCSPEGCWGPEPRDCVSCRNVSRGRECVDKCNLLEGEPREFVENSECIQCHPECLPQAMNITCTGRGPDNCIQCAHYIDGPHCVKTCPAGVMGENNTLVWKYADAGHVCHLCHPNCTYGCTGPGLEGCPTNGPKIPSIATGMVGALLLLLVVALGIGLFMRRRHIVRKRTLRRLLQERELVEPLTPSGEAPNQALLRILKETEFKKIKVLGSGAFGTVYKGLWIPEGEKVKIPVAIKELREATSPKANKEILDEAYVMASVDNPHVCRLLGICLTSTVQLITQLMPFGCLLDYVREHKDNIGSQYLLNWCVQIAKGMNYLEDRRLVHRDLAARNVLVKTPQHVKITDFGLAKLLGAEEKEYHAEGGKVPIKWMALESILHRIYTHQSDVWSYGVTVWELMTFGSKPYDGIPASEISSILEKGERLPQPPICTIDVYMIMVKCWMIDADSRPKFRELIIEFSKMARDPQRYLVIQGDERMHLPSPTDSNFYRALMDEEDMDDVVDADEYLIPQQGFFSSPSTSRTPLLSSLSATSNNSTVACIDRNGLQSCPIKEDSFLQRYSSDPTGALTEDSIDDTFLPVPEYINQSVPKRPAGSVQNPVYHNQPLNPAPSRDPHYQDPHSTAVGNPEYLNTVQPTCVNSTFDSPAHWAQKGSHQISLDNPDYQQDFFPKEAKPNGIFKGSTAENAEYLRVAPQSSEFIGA
SMILES,IC50 [3] [nM],"IC50 [4, 6] [nM]",further results
"COc1cc2ncnc(Nc3cccc(Br)c3)c2cc1OC [4-(3'-bromoanilino)-6,7-dimethoxyquinazoline]",–,–,inhibition of EGF receptor tyrosine kinase [1]: highly potent inhibitor of EGF receptor tyrosine kinase
"COc1cc2ncnc(Nc3ccc(F)c(Cl)c3)c2cc1OCCCN1CCOCC1 [Example 1, 4-(3'-chloro-4'-fluoroanilino)-7-methoxy-6-(3-morpholinopropoxy)quinazoline]",–,–,ED50 [2]: ~12.5 mg/kg
"COc1cc2ncnc(Nc3ccc(F)c(Cl)c3)c2cc1OCCN1CCOCC1 [Example 3, 4-(3'-chloro-4'-fluoroanilino)-7-methoxy-6-(2-morpholinoethoxy)quinazoline]",400,10,–
"COc1cc2ncnc(Nc3ccc(F)c(Cl)c3)c2cc1OCCN1CCN(C)CC1 [Example 4, 4-(3'-chloro-4'-fluoroanilino)-7-methoxy-6-[2-(4-methylpiperazin-1-yl)ethoxy]quinazoline]",100,–,IC50 [4]: 10 nM
"COCCN(CCOC)CCOc1cc2c(Nc3ccc(F)c(Cl)c3)ncnc2cc1OC [Example 5, 4-(3'-chloro-4'-fluoroanilino)-7-methoxy-6-{2-[di-(2-methoxyethyl)amino]ethoxy}quinazoline]",200,60,–
"COc1cc2ncnc(Nc3ccc(F)c(Cl)c3)c2cc1OCCN(C)C [Example 6, 4-(3'-chloro-4'-fluoroanilino)-6-(2-dimethylaminoethoxy)-7-methoxyquinazoline]",100,10,–
"CCN(CC)CCOc1cc2c(Nc3ccc(F)c(Cl)c3)ncnc2cc1OC [Example 7, 4-(3'-chloro-4'-fluoroanilino)-6-(2-diethylaminoethoxy)-7-methoxyquinazoline]",300,90,–
"COc1cc2ncnc(Nc3ccc(F)cc3F)c2cc1OCCCN(C)C [Example 8, 4-(2',4'-difluoroanilino)-6-(3-dimethylaminopropoxy)-7-methoxyquinazoline]",900,480,–
"COc1cc2ncnc(Nc3ccc(F)c(Cl)c3)c2cc1OCC(O)CN1CCOCC1 (stereo not shown) [Example 9, 4-(3'-chloro-4'-fluoroanilino)-6-(2-hydroxy-3-morpholinopropoxy)-7-methoxyquinazoline]",100,10,–
"COc1cc2ncnc(Nc3ccc(F)cc3F)c2cc1OCCCN1CCOCC1 [Example 14, 4-(2',4'-difluoroanilino)-7-methoxy-6-(3-morpholinopropoxy)quinazoline]",300,670,–
"COc1cc2ncnc(Nc3ccc(F)c(F)c3)c2cc1OCCCN(C)C [Example 18, 4-(3',4'-difluoroanilino)-6-(3-dimethylaminopropoxy)-7-methoxyquinazoline]",390,270,–
"COc1cc2ncnc(Nc3ccc(F)c(F)c3)c2cc1OCCCN1CCOCC1 [Example 19, 4-(3',4'-difluoroanilino)-7-methoxy-6-(3-morpholinopropoxy)quinazoline]",450,520,–
"CCN(CC)CCCOc1cc2c(Nc3ccc(F)c(F)c3)ncnc2cc1OC [Example 20, 6-(3-diethylaminopropoxy)-4-(3',4'-difluoroanilino)-7-methoxyquinazoline]",550,670,–
O=CN/C=C/c1cc(O)ccc1O [erbstatin],–,–,growth of another carcinoma not expressing EGF receptor tyrosine kinase [5]: without effect on the growth
